Source: PMC3454511 (The Journal of organic chemistry, 2012)
Values after ≈ are worked out from the molar mass of the structure shown.

What was measured:
[1] = Solubility in PBS and H2O, dry powder, 24 hour timepoint
[2] = Plasma protein binding by rapid-equilibrium dialysis, human; settings: 37 °C for 5 h
[3] = Microsomal stability, human; settings: % parent remaining at 1 hour
[4] = Microsomal stability, mouse; settings: % parent remaining at 1 hour
Plasma stability, mouse = settings: % parent remaining at 5 h
Caco-2 monolayer = test: Bidirectional Caco-2 permeability; assay type: in vitro ADME; settings: for Caco-2 A-B: A-B direction; for Caco-2 B-A: B-A direction
[5] = BBB parallel artificial membrane permeability assay; assay type: in vitro ADME; settings: for BBB PAMPA: Pe; for Papp: PAMPA
Plasma stability, human = settings: % parent remaining at 5 h
[6] = Plasma protein binding by rapid-equilibrium dialysis, mouse; settings: 37 °C for 5 h
[7] = Hepatocyte stability, mouse; settings: % parent remaining at 2 hour
[8] = Hepatocyte stability, human; settings: % parent remaining at 2 hour
physchem = settings: thermodynamic from solid
[9] = Bidirectional Caco-2 permeability; assay type: in vitro ADME; settings: human, Caco-2

SMILES: CCCN1C(CO)C2c3ccccc3NCC21 (racemic) [31a, ((±)-2-Propyl-1,2,2a,3,4,8b-hexahydroazeto[2,3-c]quinolin-1-yl) methanol]
- solubility H2O [1]: 495 µM (≈ 115 µg/mL)
- solubility PBS [1]: >500 µM
- protein binding human [2]: 10 % bound
- microsomal stability human [3]: 85 % remaining
- microsomal stability mouse [4]: 94 % remaining
- plasma stability mouse (Plasma stability, mouse): 108 % remaining
- Caco-2 A-B (Caco-2 monolayer): 43 10^−6 cm.s^−1
- Caco-2 B-A (Caco-2 monolayer): 29 10^−6 cm.s^−1
- BBB PAMPA [5]: 31 10^−6 cm s^−1
- plasma stability human (Plasma stability, human): 97 % remaining
- protein binding mouse [6]: 22 % bound

SMILES: CCCN1C(CO)C2c3ccccc3N(S(C)(=O)=O)CC21 (racemic) [31c, ((±)-4-(Methylsulfonyl)-2-propyl-1,2,2a,3,4,8b-hexahydroazeto[2,3-c]quinolin-1-yl) methanol]
- solubility H2O [1]: >500 µM
- solubility PBS [1]: 478 µM (≈ 148 µg/mL)
- protein binding human [2]: 45 % bound
- microsomal stability human [3]: 69 % remaining
- microsomal stability mouse [4]: 34 % remaining
- plasma stability mouse (Plasma stability, mouse): 107 % remaining
- Caco-2 A-B (Caco-2 monolayer): 56 10^−6 cm.s^−1
- Caco-2 B-A (Caco-2 monolayer): 64 10^−6 cm.s^−1
- BBB PAMPA [5]: 35 10^−6 cm s^−1
- plasma stability human (Plasma stability, human): 101 % remaining
- protein binding mouse [6]: 50 % bound

SMILES: CCCN1[C@H](CO)[C@H](c2ccccc2)[C@@H]1C#N [26a, (2R,3R,4S)-4-(Carbonitrile)-3-phenyl-1-propylazetidine-2-hydroxymethyl]
- solubility H2O [1]: >500 µM
- solubility PBS [1]: 402 µM (≈ 92.6 µg/mL)
- protein binding human [2]: 65 % bound
- microsomal stability human [3]: 88 % remaining
- microsomal stability mouse [4]: 62 % remaining
- plasma stability mouse (Plasma stability, mouse): 110 % remaining
- hepatocytes mouse [7]: 59 % remaining
- hepatocytes human [8]: 54 % remaining
- Caco-2 A-B (Caco-2 monolayer): 67 10^−6 cm.s^−1
- Caco-2 B-A (Caco-2 monolayer): 49 10^−6 cm.s^−1
- plasma stability human (Plasma stability, human): 109 % remaining
- protein binding mouse [6]: 65 % bound

SMILES: CCCN1C2CNCC1C2c1ccccc1 (stereo not drawn) [27a, 7-Phenyl-6-propyl-3,6-diazabicyclo[3.1.1]heptane]
- protein binding human [2]: 49 % bound
- microsomal stability human [3]: 94 % remaining
- microsomal stability mouse [4]: 79 % remaining
- plasma stability mouse (Plasma stability, mouse): 103 % remaining
- solubility at 24 h (physchem; PBS, aqueous buffer): > 500 µM
- solubility at 24 h (physchem; water): > 500 µM
- Papp A→B [9]: 30 ×10⁻⁶ cm/s
- Papp B→A [9]: 22 ×10⁻⁶ cm/s
- Papp [5]: 4 ×10⁻⁶ cm/s
- plasma stability human (Plasma stability, human): 102 % remaining
- protein binding mouse [6]: 35 % bound

SMILES: CCCN1C2CN(S(C)(=O)=O)CC1C2c1ccccc1 (stereo not drawn) [27c, 3-(Methylsulfonyl)-7-phenyl-6-propyl-3,6-diazabicyclo[3.1.1]heptane]
- protein binding human [2]: 31 % bound
- microsomal stability human [3]: 86 % remaining
- microsomal stability mouse [4]: 72 % remaining
- plasma stability mouse (Plasma stability, mouse): 102 % remaining
- hepatocytes mouse [7]: 67 % remaining
- hepatocytes human [8]: 72 % remaining
- solubility at 24 h (physchem; PBS, aqueous buffer): 470 µM (≈ 138 µg/mL)
- solubility at 24 h (physchem; water): 490 µM (≈ 144 µg/mL)
- Papp A→B [9]: 66 ×10⁻⁶ cm/s
- Papp B→A [9]: 54 ×10⁻⁶ cm/s
- Papp [5]: 31 ×10⁻⁶ cm/s
- plasma stability human (Plasma stability, human): 113 % remaining
- protein binding mouse [6]: 39 % bound

SMILES: CCCN1C2CN(Cc3ccc(F)cc3)CC1C2c1ccccc1 (stereo not drawn) [27d, 3-(4-Fluorobenzyl)-7-phenyl-6-propyl-3,6-diazabicyclo[3.1.1]heptane]
- protein binding human [2]: 98 % bound
- microsomal stability human [3]: 55 % remaining
- microsomal stability mouse [4]: 42 % remaining
- plasma stability mouse (Plasma stability, mouse): 90 % remaining
- solubility at 24 h (physchem; PBS, aqueous buffer): 335 µM (≈ 109 µg/mL)
- solubility at 24 h (physchem; water): 346 µM (≈ 112 µg/mL)
- Papp A→B [9]: 14 ×10⁻⁶ cm/s
- Papp B→A [9]: 7 ×10⁻⁶ cm/s
- Papp [5]: 111 ×10⁻⁶ cm/s
- plasma stability human (Plasma stability, human): 71 % remaining
- protein binding mouse [6]: 98 % bound

SMILES: CN1CC(=O)N2[C@H](CO)[C@H](c3ccccc3)[C@@H]2C1 [28a, (6R,7R,8S)-8-(Hydroxymethyl)-4-methyl-7-phenyl-1,4-diazabicyclo[4.2.0]octan-2-one]
- microsomal stability human [3]: 112 % remaining
- microsomal stability mouse [4]: 104 % remaining
- plasma stability mouse (Plasma stability, mouse): 116 % remaining
- solubility at 24 h (physchem; PBS, aqueous buffer): > 500 µM
- Papp A→B [9]: 43 ×10⁻⁶ cm/s
- Papp B→A [9]: 31 ×10⁻⁶ cm/s
- plasma stability human (Plasma stability, human): 99 % remaining

SMILES: O=C1CNC[C@H]2[C@@H](c3ccccc3)[C@@H](COC(c3ccccc3)(c3ccccc3)c3ccccc3)N12 [28b, (6R,7R,8S)-7-Phenyl-8-((trityloxy)methyl)-1,4-diazabicyclo[4.2.0]octan-2-one]
- solubility at 24 h (physchem; PBS, aqueous buffer): > 500 µM
- Papp A→B [9]: 12 ×10⁻⁶ cm/s
- Papp B→A [9]: 17 ×10⁻⁶ cm/s

SMILES: CS(=O)(=O)N1CC(=O)N2[C@H](CO)[C@H](c3ccccc3)[C@@H]2C1 [28c, (6R,7R,8S)-8-(Hydroxymethyl)-4-(methylsulfonyl)-7-phenyl-1,4-diazabicyclo [4.2.0] octan-2-one]
- protein binding human [2]: −4.6 % bound
- microsomal stability human [3]: 104 % remaining
- microsomal stability mouse [4]: 100 % remaining
- plasma stability mouse (Plasma stability, mouse): 106 % remaining
- solubility at 24 h (physchem; PBS, aqueous buffer): > 500 µM
- Papp A→B [9]: 17 ×10⁻⁶ cm/s
- Papp B→A [9]: 20 ×10⁻⁶ cm/s
- plasma stability human (Plasma stability, human): 78 % remaining
- protein binding mouse [6]: −2.3 % bound

SMILES: OC[C@@H]1[C@H](c2ccccc2)[C@@H]2CNCCCCN12 [29b, ((8R,9R,10S)-9-Phenyl-1,6-diazabicyclo[6.2.0]decan-10-yl)methanol]
- protein binding human [2]: 8 % bound
- microsomal stability human [3]: 86 % remaining
- microsomal stability mouse [4]: 89 % remaining
- plasma stability mouse (Plasma stability, mouse): 94 % remaining
- solubility at 24 h (physchem; PBS, aqueous buffer): > 500 µM
- solubility at 24 h (physchem; water): 491 µM (≈ 121 µg/mL)
- Papp A→B [9]: 2 ×10⁻⁶ cm/s
- Papp B→A [9]: 8 ×10⁻⁶ cm/s
- Papp [5]: 6 ×10⁻⁶ cm/s
- plasma stability human (Plasma stability, human): 99 % remaining
- protein binding mouse [6]: 9 % bound

SMILES: CN1CCCCN2[C@H](CO)[C@H](c3ccccc3)[C@@H]2C1 [29c, ((8R,9R,10S)-6-Methyl-9-phenyl-1,6-diazabicyclo[6.2.0]decan-10-yl) methanol]
- protein binding human [2]: 1 % bound
- microsomal stability human [3]: 96 % remaining
- microsomal stability mouse [4]: 97 % remaining
- plasma stability mouse (Plasma stability, mouse): 78 % remaining
- solubility at 24 h (physchem; PBS, aqueous buffer): 494 µM (≈ 129 µg/mL)
- solubility at 24 h (physchem; water): > 500 µM
- Papp A→B [9]: 14 ×10⁻⁶ cm/s
- Papp B→A [9]: 21 ×10⁻⁶ cm/s
- Papp [5]: 9 ×10⁻⁶ cm/s
- plasma stability human (Plasma stability, human): 82 % remaining
- protein binding mouse [6]: 5 % bound

SMILES: CCCN1[C@H](CO)[C@H](c2ccccc2)C12CNC2 [30a, (2S,3S)-1-Propyl-2-hydroxymethyl-3-phenyl-1,6-diazaspiro[3.3]heptane]
- microsomal stability human [3]: 95 % remaining
- microsomal stability mouse [4]: 93 % remaining
- plasma stability mouse (Plasma stability, mouse): 108 % remaining
- solubility at 24 h (physchem; PBS, aqueous buffer): > 500 µM
- Papp A→B [9]: 3 ×10⁻⁶ cm/s
- Papp B→A [9]: 12 ×10⁻⁶ cm/s
- plasma stability human (Plasma stability, human): 106 % remaining

SMILES: CCCN1[C@H](CO)[C@H](c2ccccc2)C12CN(C)C2 [30b, (2S,3S)-1-Propyl-2-hydroxymethyl-3-phenyl-6-methyl-1,6-diazaspiro[3.3]heptane]
- protein binding human [2]: 28 % bound
- microsomal stability human [3]: 99 % remaining
- microsomal stability mouse [4]: 98 % remaining
- plasma stability mouse (Plasma stability, mouse): 106 % remaining
- solubility at 24 h (physchem; PBS, aqueous buffer): > 500 µM
- Papp A→B [9]: 33 ×10⁻⁶ cm/s
- Papp B→A [9]: 56 ×10⁻⁶ cm/s
- plasma stability human (Plasma stability, human): 86 % remaining
- protein binding mouse [6]: −6.0 % bound

SMILES: CCCN1[C@H](CO)[C@H](c2ccccc2)C12CN(C(C)=O)C2 [30c, (2S,3S)-1-Propyl-2-hydroxymethyl-3-phenyl-6-acetyl-1,6-diazaspiro[3.3]heptane]
- protein binding human [2]: 37 % bound
- microsomal stability human [3]: 94 % remaining
- microsomal stability mouse [4]: 89 % remaining
- plasma stability mouse (Plasma stability, mouse): 97 % remaining
- solubility at 24 h (physchem; PBS, aqueous buffer): > 500 µM
- Papp A→B [9]: 29 ×10⁻⁶ cm/s
- Papp B→A [9]: 35 ×10⁻⁶ cm/s
- plasma stability human (Plasma stability, human): 93 % remaining
- protein binding mouse [6]: 32 % bound

SMILES: CCCN1[C@@H]2COc3ccccc3[C@@H]2[C@@H]1CNC(=O)c1ccccc1 [32a, N-(((1R,2aS,8bR)-2-Propyl-2,2a,3,8b-tetrahydro-1H-chromeno[3,4-b]azet-1-yl)methyl) benzamide]
- protein binding human [2]: 95 % bound
- microsomal stability human [3]: 0 % remaining
- microsomal stability mouse [4]: 0 % remaining
- plasma stability mouse (Plasma stability, mouse): 102 % remaining
- solubility at 24 h (physchem; PBS, aqueous buffer): 43 µM (≈ 14.5 µg/mL)
- Papp A→B [9]: 59 ×10⁻⁶ cm/s
- Papp B→A [9]: 52 ×10⁻⁶ cm/s
- plasma stability human (Plasma stability, human): 94 % remaining
- protein binding mouse [6]: 91 % bound

SMILES: CCCN1[C@@H]2COc3ccccc3[C@@H]2[C@@H]1CNS(C)(=O)=O [32b, N-(((1R,2aS,8bR)-2-Propyl-2,2a,3,8b-tetrahydro-1H-chromeno[3,4-b]azet-1-yl)methyl) methanesulfonamide]
- protein binding human [2]: 37 % bound
- microsomal stability human [3]: 73 % remaining
- microsomal stability mouse [4]: 63 % remaining
- plasma stability mouse (Plasma stability, mouse): 105 % remaining
- solubility at 24 h (physchem; PBS, aqueous buffer): 453 µM (≈ 141 µg/mL)
- Papp A→B [9]: 66 ×10⁻⁶ cm/s
- Papp B→A [9]: 57 ×10⁻⁶ cm/s
- plasma stability human (Plasma stability, human): 97 % remaining
- protein binding mouse [6]: 37 % bound
